{
  "source": "paper PMC4623779",
  "about": "“1-Octen-3-ol – the attractant that repels” (F1000Research, 2015)",
  "type_in_all_cases": "cell-based",
  "key": {"[1]": {"biological_target": "T1, CquiOR114b-1 (co-expressed with CquiOrco) (Culex quinquefasciatus, UniProt A0A3G1CJK1)", "T1 construct": "full length, 405 residues (longer C-terminus); pGEMHE, Xenopus oocytes co-expressing CquiOrco; with Odorant receptor coreceptor", "T1 sequence (A0A3G1CJK1 1-405)": "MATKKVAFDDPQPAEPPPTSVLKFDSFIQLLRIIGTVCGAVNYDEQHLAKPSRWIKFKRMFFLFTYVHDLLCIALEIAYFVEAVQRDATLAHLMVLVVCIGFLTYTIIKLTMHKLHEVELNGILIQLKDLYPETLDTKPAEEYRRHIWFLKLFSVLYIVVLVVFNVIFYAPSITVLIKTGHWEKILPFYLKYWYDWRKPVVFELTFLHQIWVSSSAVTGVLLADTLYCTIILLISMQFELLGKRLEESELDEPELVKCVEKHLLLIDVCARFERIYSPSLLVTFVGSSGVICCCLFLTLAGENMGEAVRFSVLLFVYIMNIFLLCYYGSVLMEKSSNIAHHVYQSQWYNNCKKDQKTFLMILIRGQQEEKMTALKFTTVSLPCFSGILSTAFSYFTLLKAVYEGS", "assay": "two-electrode voltage clamp, Xenopus oocytes, concentration-response", "conditions": "agonist current, 1, 10 and 100 µM, holding -80 to -70 mV"}, "[2]": {"biological_target": "T2, CquiOR118b (co-expressed with CquiOrco) (Culex quinquefasciatus, UniProt A0A3G1CJJ7)", "T2 construct": "full-length short version, 391 residues, shorter N-terminus than the VectorBase prediction CPIJ013954; pGEMHE, Xenopus oocytes co-expressing CquiOrco; with Odorant receptor coreceptor", "T2 sequence (A0A3G1CJJ7 1-391)": "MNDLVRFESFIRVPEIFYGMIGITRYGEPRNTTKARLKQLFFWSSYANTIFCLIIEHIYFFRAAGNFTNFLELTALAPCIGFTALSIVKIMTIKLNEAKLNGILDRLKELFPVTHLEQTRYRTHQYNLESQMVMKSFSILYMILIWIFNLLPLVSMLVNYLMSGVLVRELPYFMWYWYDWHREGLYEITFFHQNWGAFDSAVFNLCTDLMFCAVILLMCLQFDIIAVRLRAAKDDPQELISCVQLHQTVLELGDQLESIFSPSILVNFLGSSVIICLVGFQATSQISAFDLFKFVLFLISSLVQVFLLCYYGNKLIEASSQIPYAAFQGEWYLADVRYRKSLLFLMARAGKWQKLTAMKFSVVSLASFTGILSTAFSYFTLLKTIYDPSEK", "assay": "two-electrode voltage clamp, Xenopus oocytes, concentration-response", "conditions": "agonist current, 0.01, 0.1 and 1 µM, holding -80 to -70 mV"}, "[3]": {"biological_target": "T3, CquiOR114b-2 (co-expressed with CquiOrco) (Culex quinquefasciatus, UniProt A0A3G1CJJ8)", "T3 construct": "full length, 405 residues (longer C-terminus); pGEMHE, Xenopus oocytes co-expressing CquiOrco; with Odorant receptor coreceptor", "T3 sequence (A0A3G1CJJ8 1-405)": "T1 sequence (A0A3G1CJK1 1-405) with L63W, G122E, D129N", "assay": "two-electrode voltage clamp, Xenopus oocytes, current traces", "conditions": "agonist current, 1 to 10 µM, enantiomer not stated", "from_the_text": "two-electrode voltage clamp, Xenopus oocytes, current traces on CquiOR114b-2 (co-expressed with CquiOrco) | CquiOR114b-2 and CquiOrco (lower trace). Compounds were delivered in the following order | CquiOR114b-2 and CquiOrco (lower trace). Compounds were delivered in the following order: 1-octyn-3-ol"}, "[4]": {"biological_target": "T1, CquiOR114b-1 (co-expressed with CquiOrco)", "assay": "two-electrode voltage clamp, Xenopus oocytes, current traces", "conditions": "agonist current, 1 to 10 µM, enantiomer not stated"}},
  "note": "Where a chain is given by its changes, count along the chain named.",
  "data": [
    {"smiles": "C=C[C@H](O)CCCCC", "note": "[(R)-1-octen-3-ol]", "values": [
      {"measurement": "two-electrode voltage clamp, Xenopus oocytes, concentration-response", "setting": "[1]", "result": "currents elicited by ( R)-1-octen-3-ol were significantly lower than those obtained with its antipode"},
      {"measurement": "two-electrode voltage clamp, Xenopus oocytes, concentration-response", "setting": "[2]", "result": "robust responses were elicited by ( R)-1-octen-3-ol in a dose-dependent manner"}
    ]},
    {"smiles": "C#C[C@@H](O)CCCCC", "note": "[(S)-1-octyn-3-ol]", "values": [
      {"measurement": "two-electrode voltage clamp, Xenopus oocytes, concentration-response", "setting": "[1]", "result": "showed preference for ( S)-isomers of 1-octen-3-ol and 1-octyn-3-ol"},
      {"measurement": "two-electrode voltage clamp, Xenopus oocytes, concentration-response", "setting": "[2]", "result": "CquiOR118b showed dramatic enantioselectivity towards ( R)-as compared to ( S)-1-octyn-3-ol"}
    ]},
    {"smiles": "C#CC(O)CCCCC", "note": "(centres unmarked) [1-octyn-3-ol]", "values": [
      {"measurement": "two-electrode voltage clamp, Xenopus oocytes, current traces", "setting": "[3]", "result": "CquiOR114b-2 and CquiOrco (lower trace). Compounds were delivered in the following order: 1-octyn-3-ol"},
      {"measurement": "two-electrode voltage clamp, Xenopus oocytes, current traces", "setting": "[4]", "result": "oocytes co-expressing CquiOR114b-1 and CquiOrco (top trace)"}
    ]},
    {"smiles": "C=CC(O)CCCCC", "note": "(centres unmarked) [1-octen-3-ol]", "values": [
      {"measurement": "two-electrode voltage clamp, Xenopus oocytes, current traces", "setting": "[3]", "result": "CquiOR114b-2 and CquiOrco (lower trace). Compounds were delivered in the following order"},
      {"measurement": "two-electrode voltage clamp, Xenopus oocytes, current traces", "setting": "[4]", "result": "oocytes co-expressing CquiOR114b-1 and CquiOrco (top trace)"}
    ]},
    {"smiles": "CCCCC[C@@H](O)CC", "note": "[(S)-3-octanol]", "values": [
      {"measurement": "two-electrode voltage clamp, Xenopus oocytes, concentration-response", "setting": "[1]", "result": "robust responses to 3-octanol, with responses to the ( R)- and ( S)-stereoisomers being almost indistinguishable"}
    ]},
    {"smiles": "CCCCC[C@H](O)CC", "note": "[(R)-3-octanol]", "values": [
      {"measurement": "two-electrode voltage clamp, Xenopus oocytes, concentration-response", "setting": "[1]", "result": "robust responses to 3-octanol, with responses to the ( R)- and ( S)-stereoisomers being almost indistinguishable"},
      {"measurement": "two-electrode voltage clamp, Xenopus oocytes, concentration-response", "setting": "[2]", "result": "the responses to ( R)-3-octanol were relatively high"}
    ]},
    {"smiles": "C#C[C@H](O)CCCCC", "note": "[(R)-1-octyn-3-ol]", "values": [
      {"measurement": "two-electrode voltage clamp, Xenopus oocytes, concentration-response", "setting": "[1]", "result": "oocytes were challenged with enantiomers of 1-octen-3-ol, 1-octyn-3-ol, and 3-octanol"},
      {"measurement": "two-electrode voltage clamp, Xenopus oocytes, concentration-response", "setting": "[2]", "result": "CquiOR118b showed dramatic enantioselectivity towards ( R)-as compared to ( S)-1-octyn-3-ol"}
    ]},
    {"smiles": "CCCCCC(O)CC", "note": "(centres unmarked) [3-octanol]", "values": [
      {"measurement": "two-electrode voltage clamp, Xenopus oocytes, current traces", "setting": "[3]", "result": "CquiOR114b-2 and CquiOrco (lower trace). Compounds were delivered in the following order"},
      {"measurement": "two-electrode voltage clamp, Xenopus oocytes, current traces", "setting": "[4]", "result": "oocytes co-expressing CquiOR114b-1 and CquiOrco (top trace)"}
    ]},
    {"smiles": "C=C[C@@H](O)CCCCC", "note": "[(S)-1-octen-3-ol]", "values": [
      {"measurement": "two-electrode voltage clamp, Xenopus oocytes, concentration-response", "setting": "[1]", "result": "significantly lower than those obtained with its antipode, ( S)-1-octen-3-ol"},
      {"measurement": "two-electrode voltage clamp, Xenopus oocytes, concentration-response", "setting": "[2]", "result": "currents generated by its antipode, ( S)-1-octen-3-ol, were relatively very small"}
    ]}
  ]
}
